Test results published in patent US20260365677A1, “NEW CONTRAST AGENTS FOR USE IN DIAGNOSTIC IMAGING” (Bayer Aktiengesellschaft, priority 2022, published 2026).

How the values were obtained:
[1] = system: freshly isolated rat hepatocytes; test: Uptake into freshly isolated rat hepatocytes; type: cell-based; settings: 100 μmol Gd/L, 10 min, 37 °C, relative to RC1 (Gd-EOB-DTPA)
Experimental: Triplicates were performed for each test item.

OATP1B3 = target: T1, OATP1B3 (Homo sapiens, UniProt Q9NPD5); test: Uptake into stable transfected OATP1B3 HEK 293 cells; type: cell-based; settings: 100 μM, 40 min, relative to RC1 (Gd-EOB-DTPA)
T1 construct: expressed in transfected cells
T1 sequence (Q9NPD5 1-702): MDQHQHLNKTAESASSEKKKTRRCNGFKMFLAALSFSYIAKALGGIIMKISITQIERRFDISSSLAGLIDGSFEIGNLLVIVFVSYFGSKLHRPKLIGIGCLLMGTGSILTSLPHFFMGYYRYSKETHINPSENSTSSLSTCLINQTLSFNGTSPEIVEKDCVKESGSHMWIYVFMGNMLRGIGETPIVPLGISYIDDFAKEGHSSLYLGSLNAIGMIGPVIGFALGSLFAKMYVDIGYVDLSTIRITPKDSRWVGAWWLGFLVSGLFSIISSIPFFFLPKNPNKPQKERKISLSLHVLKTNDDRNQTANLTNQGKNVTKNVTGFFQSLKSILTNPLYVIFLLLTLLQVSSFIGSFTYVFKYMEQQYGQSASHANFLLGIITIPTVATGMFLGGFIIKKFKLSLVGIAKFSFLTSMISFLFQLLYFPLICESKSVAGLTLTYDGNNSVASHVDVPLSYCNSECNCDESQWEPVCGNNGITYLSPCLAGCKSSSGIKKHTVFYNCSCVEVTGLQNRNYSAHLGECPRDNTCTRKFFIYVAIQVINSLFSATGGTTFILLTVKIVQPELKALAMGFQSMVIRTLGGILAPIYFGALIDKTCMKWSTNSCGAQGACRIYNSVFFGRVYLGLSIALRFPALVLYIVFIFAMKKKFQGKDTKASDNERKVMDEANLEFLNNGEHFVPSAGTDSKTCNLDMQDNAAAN
Experimental: Human transfected OATP1B3 human embryonic kidney 293 cells (OATP1B3 HEK 293, SLCO1B3, Entrez Gene ID: 28234) were used (Leonhardt M et al. Drug Metab Dispos. 2010 July; 38(7):1024-8). The following culture medium was used: 500 mL DMEM (Dulbecco's Modified Eagle Medium—high Glucose, D6429), 50 mL FCS (fetal bovine serum, Fa. Sigma, F7524), 5.8 mL G418 (Geneticin, Fa. Gibco 10131-027) and 5 mL Pen-Strep. (Penicillin-Streptomycin, Fa. Gibco, Ref 15140-122). Cryopreserved cells were shortly thawed in water bath and diluted in 10 mL warm culture medium (37 °C). After medium change the cells were grown for 3d in a 25 cm^2 cell culture flask. After 3 to 5d the cells were transferred into 75 cm^2 flasks. For the splitting of cells these were incubated with 1.5 mL trypsin (Trypsin-EDTA (1×) 0.05%, Ref 25300-054 100 ml, Fa. Gibco) for 3-5 min in the incubator (37 °C, 5% CO2 and 95% oxygen). After centrifugation and washing with medium the cells were counted (50 μL cell suspension and 50 μL trypan blue (Trypan Blue Solution, 93595-50 ml, Fa. Fluka). Cells were cultured (1×10^5 cells/well) in poly-D-lysine coated 24-well plates (Fa. Corning, Ref: 354414) in 1.5 mL medium per well. After 48 hours in the incubator the medium was changed and 1.5 mL/well sodium butyrate containing medium were added (40 mL culture medium plus 400 μL Na-Butyrate, Fa. Sigma Aldrich B5887-5G, 250 mg in 2.27 mL MilliQ water). After 24 hours in the incubator the medium was vacuumed off and 1.5 mL transport buffer was added and incubated for 10 min. The transport buffer contains the following ingredients: 500 mL HBSS (Hank's balanced salt solution, Hyclone, SH30268.01), 5 mL HEPES buffer (4-(2-hydroxyethyl)-1-piperazine-ethanesulfonic acid, Gibco 15630-056) and 3.9 mL glucose (Sigma, G8270-100, 90 g/200 mL MilliQ water). All test items were prepared in transport buffer at a final concentration of 100 μM from stock solutions (180 to 500 mM concentration). The OATP1B3 HEK 293 cells were incubated with test solutions (test item in transport buffer 500 μL) for 40 min on a thermoshaker without shaking (PHMP, Fa. Grant Bio). Triplicates were performed for each test item. After incubation the cells were washed with 2 mL of cold PBS (+) buffer (Dulbeccos PBS+, Fa. Gibco). […] As a reference standard Gd-EOB-DTPA (gadoxetate) is used in the same well plate. The OATP1B3 HEK 293 uptake of the test compound is calculated relative to gadoxetate (resulting in the unit % of RC1).

[2] = Partition coefficient (log P butanol/buffer); type: physicochemical; settings: 50 mM Tris-HCl, pH 7.4, 10 μM, room temperature
Experimental: The partition coefficient P (log P=log(Cbutanol/Cbuffer)) was determined in buffered aqueous solution (10 μM of compound in 0.5 mL 50 mM Tris-HCl saturated with Butanol, pH 7.4) and 1-butanol 1+1 and the mixture was shaken for 2 h at room temperature (n=3). The Gd-concentrations in each phase. CObutano, and Cbuffer were measured by ICP-MS (The Chemistry of Contrast Agents in Medical Magnetic Resonance Imaging” 2nd Ed. Merbach A S, Helm L, Toth E, eds. Hoboken, NJ: Wiley 2013).

[3] = Exploratory water solubility in 10 mM Tris-HCl buffer, pH 7.4; type: physicochemical; settings: aqueous buffer (10 mM Tris-HCl), 20 °C
Experimental: The exploratory water solubility of the compounds is determined at room temperature (20 °C) in 0.5 mL buffer solution (10 mM Tris-HCl, pH 7.4) in the microcentrifuge tubes (Eppendorf, 2.0 mL safe-lock caps). The solid compounds were added stepwise to the buffer solution. More substance is added once all the suspended material is dissolved until an equilibrium between undissolved and dissolved substance is reached. The suspension was mixed using a shaker (Heidolph Reax 2000) and treated 5 min in an ultrasound bath (Bandelin, Sonorex Super RK255H). The Gadolinium concentration of the test substance in the clear solution is measured by ICP-MS.

[4] = No-observed-adverse-effect level (NOAEL) in mice; settings: intravenous bolus injection

Structure (SMILES) | Uptake rat hepatocytes [1] | Uptake into OATP1B3-HEK 293 cells (OATP1B3) | Log P [2] | Solubility [3] [mM] | NOAEL [4] [mmol Gd/kg bw]
CCOc1ccc(CC2CN(CC(=O)[O-])CCN(CC(=O)[O-])CCN(CC(=O)O)CCN2CC(=O)[O-])cc1.[Gd+3] (single isomer, unassigned; diastereomer 1) [Example 8, Gadolinium-2,2′,2″-[10-(carboxymethyl)-2-(4-ethoxybenzyl)-1,4,7,10-tetraazacyclododecane-1,4,7-triyl]triacetate (racemic diastereomer 1)] | 143 % of RC1 | 94 % of RC1 | −1.33 | – | –
CCOc1ccc(CC2CN(CC(=O)[O-])CCN(CC(=O)[O-])CCN(CC(=O)O)CCN2CC(=O)[O-])cc1.[Gd+3] (single isomer, unassigned; diastereomer 2) [Example 9, Gadolinium-2,2′,2″-[10-(carboxymethyl)-2-(4-ethoxybenzyl)-1,4,7,10-tetraazacyclododecane-1,4,7-triyl]triacetate (racemic diastereomer 2)] | 42 % of RC1 | 13 % of RC1 | −1.36 | >145 | –
CCOc1ccc(C[C@H]2CN(CC(=O)[O-])CCN(CC(=O)[O-])CCN(CC(=O)O)CCN2CC(=O)[O-])cc1.[Gd+3] (single isomer, unassigned; stereoisomer 1) [Example 10] | 104 % of RC1 | 80 % of RC1 | −1.34 | >23 | –
CCCCOc1ccc(C[C@H]2CN(CC(=O)[O-])CCN(CC(=O)[O-])CCN(CC(=O)O)CCN2CC(=O)[O-])cc1.[Gd+3] (single isomer, unassigned; stereoisomer 1) [Example 12] | 110 % of RC1 | 66 % of RC1 | −0.45 | 211 | –
CCOc1ccc(C[C@H]2CN(CC(=O)[O-])CCN(CC(=O)[O-])CCN(CC(=O)O)CCN2CC(=O)[O-])cc1.[Gd+3] (single isomer, unassigned; stereoisomer 2) [Example 11] | 49 % of RC1 | 32 % of RC1 | −1.37 | >146 | –
CCCCOc1ccc(C[C@H]2CN(CC(=O)[O-])CCN(CC(=O)[O-])CCN(CC(=O)O)CCN2CC(=O)[O-])cc1.[Gd+3] (single isomer, unassigned; stereoisomer 2) [Example 13] | 137 % of RC1 | 383 % of RC1 | – | >43 | –
COCCOCCOCCOc1ccc(C[C@H]2CN(CC(=O)[O-])CCN(CC(=O)[O-])CCN(CC(=O)O)CCN2CC(=O)[O-])cc1.[Gd+3] [Example 1, Gadolinium-2,2′,2″-[(2S)-10-(carboxymethyl)-2-(4-{2-[2-(2-methoxyethoxy)-ethoxy]ethoxy}benzyl)-1,4,7,10-tetraazacyclododecane-1,4,7-triyl]triacetate] | 47 % of RC1 | 79 % of RC1 | −2.12 | >201 | –
CCOCCOCCOc1ccc(C[C@H]2CN(CC(=O)[O-])CCN(CC(=O)[O-])CCN(CC(=O)O)CCN2CC(=O)[O-])cc1.[Gd+3] [Example 2, Gadolinium-2,2′,2″-[(2S)-10-(carboxymethyl)-2-{4-[2-(2-ethoxyethoxy)ethoxy]benzyl}-1,4,7,10-tetraazacyclododecane-1,4,7-triyl]triacetate] | 65 % of RC1 | 121 % of RC1 | −1.52 | >55 | –
COCCOCCOCCOc1ccc(C[C@@H]2CN(CC(=O)[O-])CCN(CC(=O)[O-])CCN(CC(=O)O)CCN2CC(=O)[O-])cc1.[Gd+3] [Example 3, Gadolinium-2,2′,2″-[(2R)-10-(carboxymethyl)-2-(4-{2-[2-(2-methoxyethoxy)ethoxy]ethoxy}benzyl)-1,4,7,10-tetraazacyclododecane-1,4,7-triyl]triacetate] | 49 % of RC1 | 28 % of RC1 | −2.05 | >166 | –
CCOCCOc1ccc(C[C@H]2CN(CC(=O)[O-])CCN(CC(=O)[O-])CCN(CC(=O)O)CCN2CC(=O)[O-])cc1.[Gd+3] [Example 4, Gadolinium-2,2′,2″-{(2S)-10-(carboxymethyl)-2-[4-(2-ethoxyethoxy)benzyl]-1,4,7,10-tetraazacyclododecane-1,4,7-triyl}triacetate] | 67 % of RC1 | 103 % of RC1 | −1.57 | >738 | 2.50
CCOCCOCCOCCOc1ccc(C[C@H]2CN(CC(=O)[O-])CCN(CC(=O)[O-])CCN(CC(=O)O)CCN2CC(=O)[O-])cc1.[Gd+3] [Example 5, Gadolinium-2,2′,2″-[(2S)-10-(carboxymethyl)-2-(4-{2-[2-(2-ethoxyethoxy)ethoxy]ethoxy}benzyl)-1,4,7,10-tetraazacyclododecane-1,4,7-triyl]triacetate] | 57 % of RC1 | 100 % of RC1 | −1.74 | >284 | –
CCOCCOCCOc1ccc(C[C@H]2CN(CC(=O)[O-])CCN(CC(=O)[O-])CCN(CC(=O)O)CCN2CC(=O)[O-])nc1.[Gd+3] [Example 6, Gadolinium 2,2′,2″-[(2S)-10-(carboxymethyl)-2-({5-[2-(2-ethoxyethoxy)ethoxy]pyridin-2-yl}methyl)-1,4,7,10-tetraazacyclododecane-1,4,7-triyl]triacetate] | 47 % of RC1 | 32 % of RC1 | −1.96 | – | –
